In patent US9273057B2 (Bristol-Myers Squibb Company, priority 2012, dated 2016):
Where two headings read alike, the source gives them in different places.

Target: CK2A1 (CK2α/β) (Homo sapiens, UniProt P68400)
Experiment: CK2 kinase assay, CK2A1 (CK2α/β)
Assay type: biochemical
Details: Table A
[1] = read-out: CK2A1 (CK2α/β) (IC50)

Sequence of CK2A1 (CK2α/β) (P68400 whole entry, species assumed): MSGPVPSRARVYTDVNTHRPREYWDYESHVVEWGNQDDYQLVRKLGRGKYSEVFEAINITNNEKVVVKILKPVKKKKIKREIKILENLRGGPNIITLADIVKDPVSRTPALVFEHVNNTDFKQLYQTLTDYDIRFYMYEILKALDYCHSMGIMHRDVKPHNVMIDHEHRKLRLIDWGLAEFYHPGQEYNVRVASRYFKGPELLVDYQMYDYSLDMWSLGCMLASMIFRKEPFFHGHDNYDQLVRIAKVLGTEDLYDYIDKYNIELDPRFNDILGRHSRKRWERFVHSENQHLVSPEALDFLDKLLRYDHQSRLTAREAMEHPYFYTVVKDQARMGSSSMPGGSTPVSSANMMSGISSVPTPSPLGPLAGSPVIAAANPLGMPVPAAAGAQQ
Sequence of CK2A1 (CK2α/β) (P67870 whole entry partner, species assumed): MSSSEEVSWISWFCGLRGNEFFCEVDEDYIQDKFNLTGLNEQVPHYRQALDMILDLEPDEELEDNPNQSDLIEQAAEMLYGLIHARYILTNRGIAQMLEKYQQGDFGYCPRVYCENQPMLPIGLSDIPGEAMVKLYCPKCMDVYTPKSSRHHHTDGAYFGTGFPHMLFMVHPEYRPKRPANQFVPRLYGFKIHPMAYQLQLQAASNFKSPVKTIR

SMILES: CCNc1nc(Nc2cc(C#N)cc(N3CC[C@@H](NC(=O)OC)[C@H](OC(=O)Cc4ccc(OP(=O)(O)O)cc4)C3)c2Cl)nn2c(C#N)cnc12 [Example 344, (3R,4R)-1-(2-chloro-5-cyano-3-((7-cyano-4-(ethylamino)imidazo[2,1-f][1,2,4]triazin-2-yl)amino)phenyl)-4-((methoxycarbonyl)amino)piperidin-3-yl 2-(4-(phosphonooxy)phenyl)acetate]
- IC50 (CK2A1 (CK2α/β) (IC50, nM)): 3 nM

SMILES: CC(=O)N1CCN(CC(O)c2cc(C#N)cc(Nc3nc(NC4CC4)c4ncc(C#N)n4n3)c2Cl)CC1 (centres unmarked) [Example 689, 2-((3-(2-(4-acetylpiperazin-1-yl)-1-hydroxyethyl)-2-chloro-5-cyanophenyl)amino)-4-(cyclopropylamino)imidazo[2,1-f][1,2,4]triazine-7-carbonitrile]
- IC50 [1]: 1 nM

SMILES: CC(=O)N1CC(N2CCC(c3cc(C#N)cc(Nc4nc(NC5CC5)c5ncc(C#N)n5n4)c3F)CC2)C1 [Example 637, 2-((3-(1-(1-acetylazetidin-3-yl)piperidin-4-yl)-2-fluoro-5-cyanophenyl)amino)-4-(cyclopropylamino)imidazo[2,1-f][1,2,4]triazine-7-carbonitrile]
- IC50 [1]: 4.79 nM

SMILES: COC(=O)N[C@@H]1CCN(c2cc(C(F)F)cc(Nc3nc(NC4CC4)c4ncc(C#N)n4n3)c2Cl)C[C@H]1O [Example 243, methyl (3R,4R)-1-(2-chloro-3-(7-cyano-4-(cyclopropylamino)imidazo[1,2-f][1,2,4]triazin-2-ylamino)-5-(difluoromethyl)phenyl)-3-hydroxypiperidin-4-ylcarbamate]
- IC50 [1]: 2.08 nM

SMILES: CCNc1nc(Nc2cc(C#N)cc(N3CCC(NC4COC4)CC3)c2Cl)nn2c(C#N)cnc12 [Example 363, 2-((2-chloro-5-cyano-3-(4-(oxetan-3-ylamino)piperidin-1-yl)phenyl)amino)-4-(ethylamino)imidazo[2,1-f][1,2,4]triazine-7-carbonitrile]
- IC50 [1]: 0.78 nM

SMILES: N#Cc1cc(Nc2nc(NC3CC3)c3ncc(C#N)n3n2)c(Cl)c(N2CC[C@@H](NC(=O)N3CCOCC3)[C@H](O)C2)c1 (racemic) [Example 181, (+/−)-N-((3R,4R)-1-(2-chloro-5-cyano-3-((7-cyano-4-(cyclopropylamino)imidazo[2,1-f][1,2,4]triazin-2-yl)amino)phenyl)-3-hydroxypiperidin-4-yl)morpholine-4-carboxamide]
- IC50 [1]: 0.88 nM

SMILES: N#Cc1cc(Nc2nc(NC3CC3)c3ncc(C#N)n3n2)c(Cl)c(N2CCN([C@H]3C[C@H](C#N)C3)CC2)c1 [Example 107, 2-((2-chloro-5-cyano-3-(4-(trans-3-cyanocyclobutyl)-1-piperazinyl)phenyl)amino)-4-(cyclopropylamino) imidazo[2,1-f][1,2,4] triazine-7-carbonitrite]
- IC50 [1]: 0.59 nM

SMILES: CCNc1nc(Nc2cc(C#N)cc(N3CCC(N(C(=O)OC)C4COC4)CC3)c2Cl)nn2c(C#N)cnc12 [Example 366, methyl (1-(2-chloro-5-cyano-3-((7-cyano-4-(ethylamino)imidazo[2,1-f][1,2,4]triazin-2-yl)amino)phenyl)piperidin-4-yl)(oxetan-3-yl)carbamate]
- IC50 [1]: 0.78 nM

SMILES: CN1CC2(CCN(c3cc(C#N)cc(Nc4nc(NC5CC5)c5ncc(C#N)n5n4)c3Cl)CC2)OC1=O [Example 780, 2-((2-chloro-5-cyano-3-(3-methyl-2-oxo-1-oxa-3,8-diazaspiro[4.5]decan-8-yl)phenyl)amino)-4-(cyclopropylamino)imidazo[2,1-f][1,2,4]triazine-7-carbonitrile]
- IC50 [1]: 0.67 nM

SMILES: N#Cc1cc(Nc2nc(NC3CC3)c3ncc(C#N)n3n2)c(Cl)c(N2CCC(NCC(O)C(F)(F)F)CC2)c1 (racemic) [Example 139, (+/−) 2-((2-chloro-5-cyano-3-(4-((3,3,3-trifluoro-2-hydroxypropyl)amino)-1-piperidinyl)phenyl)amino)-4-(cyclopropylamino)imidazo [2,1-f][1,2,4]triazine-7-carbonitrile]
- IC50 [1]: 0.45 nM

SMILES: N#Cc1cc(Nc2nc(NC3CC3)c3ncc(C#N)n3n2)c(Cl)c(N2CCN(C3CN(C(=O)C4CC4)C3)CC2)c1 [Example 485, 2-({2-chloro-5-cyano-3-[4-(1-cyclopropanecarbonyl-azetidin-3-yl)piperazin-1-yl]phenyl}amino)-4-(cyclopropylamino)imidazo[2,1-f][1,2,4]triazine-7-carbonitrile]
- IC50 [1]: 0.77 nM

SMILES: N#Cc1cc(Nc2nc(NC3CC3)c3ncc(C#N)n3n2)c(Cl)c(N2C[C@@H]3CCCN[C@@H]3C2)c1 (racemic) [Example 777, (+/−)-2-((2-chloro-5-cyano-3-((4aS,7aS)-hexahydro-1H-pyrrolo[3,4-b]pyridin-6(2H)-yl)phenyl)amino)-4-(cyclopropylamino)imidazo[2,1-f][1,2,4]triazine-7-carbonitrile]
- IC50 [1]: 0.64 nM

SMILES: N#Cc1cc(Nc2nc(NC3CC3)c3ncc(C#N)n3n2)c(Cl)c(OC2CCN(C3COC3)CC2)c1 [Example 425, 2-((2-chloro-5-cyano-3-((1-(oxetan-3-yl)piperidin-4-yl)oxy)phenyl)amino)-4-(cyclopropylamino)imidazo[2,1-f][1,2,4]triazine-7-carbonitrile]
- IC50 [1]: 0.73 nM

SMILES: N#Cc1cc(Nc2nc(NC3CC3)c3ncc(C#N)n3n2)c(Cl)c(C(O)CN2CCC(O)CC2)c1 (centres unmarked) [Example 688, 2-((2-chloro-5-cyano-3-(1-hydroxy-2-(4-hydroxypiperidin-1-yl)ethyl)phenyl)amino)-4-(cyclopropylamino)imidazo[2,1-f][1,2,4]triazine-7-carbonitrile]
- IC50 [1]: 2.4 nM

SMILES: CCOC(=O)N1CCC(NC2CCN(c3cc(C#N)cc(Nc4nc(NC5CC5)c5ncc(C#N)n5n4)c3Cl)CC2)CC1 [Example 118, ethyl 4-((1-(2-chloro-5-cyano-3-((7-cyano-4-(cyclopropylamino)imidazo [2,1-f][1,2,4]triazin-2-yl)amino)phenyl)-4-piperidinyl)amino)-1-piperidinecarboxylate]
- IC50 [1]: 0.84 nM

SMILES: N#Cc1cc(Nc2nc(NC3CC3)c3ncc(C#N)n3n2)c(Cl)c(N2CCN3CCC2C3)c1 (centres unmarked) [Example 8, 2-((2-chloro-5-cyano-3-(1,4-diazabicyclo[3.2.1]oct-4-yl)phenyl)amino)-4-(cyclopropylamino)imidazo [2,1-f][1,2,4]triazine-7-carbonitrile]
- IC50 [1]: 0.53 nM

SMILES: COC(=O)N[C@H]1CN(C2CN(c3cc(C#N)cc(Nc4nc(NC5CC5)c5ncc(C#N)n5n4)c3Cl)C2)CC1OC (stereo in doubt) [Example 298, methyl ((3S,4R)-1-(1-(2-chloro-5-cyano-3-((7-cyano-4-(cyclopropylamino)imidazo[2,1-f][1,2,4]triazin-2-yl)amino)phenyl)-3-azetidinyl)-4-methoxy-3-pyrrolidinyl)carbamate]
- IC50 [1]: 0.49 nM

SMILES: [2H]C1(N2CCC(c3cc(C#N)cc(Nc4nc(NC5CC5)c5ncc(C#N)n5n4)c3Cl)CC2)COC1 [Example 223, 2-((2-chloro-5-cyano-3-(1-(3-~2~H)-3-oxetanyl-4-piperidinyl)phenyl)amino)-4-(cyclopropylamino)imidazo[2,1-f][1,2,4]triazine-7-carbonitrile]
- IC50 [1]: 0.95 nM

SMILES: N#Cc1cc(Nc2nc(NC3CC3)c3ncc(C#N)n3n2)c(Cl)c(OC2CCN(C3COC3)C2)c1 (racemic) [Example 426, (+/−)-2-((2-chloro-5-cyano-3-((1-(oxetan-3-yl)pyrrolidin-3-yl)oxy)phenyl)amino)-4-(cyclopropylamino)imidazo[2,1-f][1,2,4]triazine-7-carbonitrile]
- IC50 [1]: 0.38 nM

SMILES: CCOCCC(=O)N1CC(N2CCN(c3cc(C#N)cc(Nc4nc(NC5CC5)c5ncc(C#N)n5n4)c3Cl)CC2)C1 [Example 511, 2-[(2-chloro-5-cyano-3-{4-[1-(3-ethoxypropanoyl)azetidin-3-yl]piperazin-1-yl}phenyl)amino]-4-(cyclopropylamino)imidazo[2,1-f][1,2,4]triazine-7-carbonitrile]
- IC50 [1]: 4.62 nM

SMILES: COC(=O)N1CCN(c2cc(C#N)cc(Nc3nc(NC4CC4)c4ncc(C#N)n4n3)c2Cl)CC1 [Example 67, methyl 4-(2-chloro-5-cyano-3-((7-cyano-4-(cyclopropylamino)imidazo[2,1-f] [1,2,4]triazin-2-yl)amino)phenyl)-1-piperazinecarboxylate]
- IC50 [1]: 0.48 nM

SMILES: CC(C)(O)C1CN(c2cc(C(F)F)cc(Nc3nc(NC4CC4)c4ncc(C#N)n4n3)c2Cl)CCO1 (racemic) [Example 280, (+/−) 2-((2-chloro-5-(difluoromethyl)-3-(2-(1-hydroxy-1-methylethyl)-4-morpholinyl)phenyl)amino)-4-(cyclopropylamino)imidazo[2,1-f][1,2,4]triazine-7-carbonitrile]
- IC50 [1]: 2.09 nM

SMILES: CC(C)N(C1CCN(c2cc(C#N)cc(Nc3nc(NC4CC4)c4ncc(C#N)n4n3)c2Cl)CC1)C1CC(=O)N(C)C1 (centres unmarked) [Example 716, 2-[(2-chloro-5-cyano-3-{4-[(1-methyl-5-oxopyrrolidin-3-yl)(propan-2-yl)amino]piperidin-1-yl}phenyl)amino]-4-(cyclopropylamino)imidazo [2,1-f][1,2,4]triazine-7-carbonitrile]
- IC50 [1]: 32.6 nM

SMILES: N#Cc1cc(Nc2nc(NC3CC3)c3ncc(C#N)n3n2)c(Cl)c(N2CCN(C(=O)CN3CCC3)CC2)c1 [Example 584, 2-[(3-{4-[2-(azetidin-1-yl)acetyl]piperazin-1-yl}-2-chloro-5-cyanophenyl)amino]-4-(cyclopropylamino)imidazo [2,1-f][1,2,4]triazine-7-carbonitrile]
- IC50 [1]: 1.54 nM

SMILES: COCCN1CC(N2CCC(c3cc(C#N)cc(Nc4nc(NC5CC5)c5ncc(C#N)n5n4)c3Cl)CC2)C1 [Example 325, 2-((2-chloro-5-cyano-3-(1-(1-(2-methoxyethyl)-3-azetidinyl)-4-piperidinyl)phenyl)amino)-4-(cyclopropylamino)imidazo [2,1-f][1,2,4]triazine-7-carbonitrile]
- IC50 [1]: 0.57 nM

SMILES: COC(=O)N[C@H]1CN(c2cc(C#N)cc(Nc3nc(NC4CC4)c4ncc(C#N)n4n3)c2Cl)C[C@H]1CF [Example 287, methyl ((3R,4R)-1-(2-chloro-5-cyano-3-((7-cyano-4-(cyclopropylamino)imidazo[2,1-f][1,2,4]triazin-2-yl)amino)phenyl)-4-(fluoromethyl)-3-pyrrolidinyl)carbamate]
- IC50 [1]: 1.17 nM
